What all share (test): DTP human tumour cell line panel, 48 h
Assay [1] deals with HCC 2998.
Assay [2] has as its system M14.
For assay [3], the system named is SN12C.
Assay [4] has as its system OVCAR-4.
Assay [5] concerns SK-MEL-5.
Assay [6] concerns SF-295.
For assay [7], the system named is COLO 205.
In assay [8] the test system is EKVX.
For assay [9], the system named is NCI-H226.
Assay [10] has as its system SF-268.
The subject of assay [11] is A549.
Assay [12] relates to SW-620.
Assay [13] concerns HT-29.
For assay [14], the system named is NCI-H460.
Assay [15] relates to SF-539.
Assay [16] concerns HCT-116.
Assay [17] deals with MCF7.
The test system of assay [18] is RXF 393.
In assay [19] the test system is SR.

These results are taken from ChEMBL document CHEMBL1201862, “PubChem BioAssay data set” (2004).

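Tested at 5 concentrations; 48 h exposure; 96-well plates; endpoints linearly interpolated, else capped at highest concentration. GI50 marks 50% less growth.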 Activity calls are given as the source filed them. No stated cut-off is given here; in the data, active = GI50 up to about 1.1 µM and inactive = higher. Some results are limits rather than exact numbers.

The GI50 is the concentration that inhibits growth by half.

With `NC(=O)c1csc(C2O[C@@H](COP(=O)(O)OP(=O)(O)OC[C@H]3OC(n4cnc5c(N)ncnc54)[C@H](O)[C@@H]3O)[C@H](O)[C@@H]2O)n1` (some centres not stated), the GI50 is > 100 µM (inactive) in assay [1]; 37.8 µM (inactive) in [2]; > 100 µM (inactive) in assay [3]; 73.3 µM (inactive) in assay [4]; > 100 µM (inactive) in assay [5]; 30 µM (inactive) in assay [6]. The GI50 was > 100 µM (inactive) in assay [7]; > 100 µM (inactive) in assay [8]; > 100 µM (inactive) in [9]; 64 µM (inactive) in assay [10]; > 100 µM (inactive) in [11]; > 100 µM (inactive) in assay [12]. The values for the GI50 in [13], in [14] and in assay [15] were 87.5 µM (inactive), 39.6 µM (inactive) and 52 µM (inactive), respectively.
For the molecule `C=C1C(=O)C[C@@]23CCC[C@@]12CC(OCOC)C3` (some centres not stated), the GI50 in [1] was 6.35 µM (inactive); in assay [3] it was 1.93 µM (inactive); in assay [4], 2.19 µM (inactive); in assay [16], 2.18 µM (inactive); in assay [5], 3.33 µM (inactive); in assay [6], 5.3 µM (inactive). Further, the GI50 was 3.8 µM (inactive) in assay [7]; 6.46 µM (inactive) in [8]; 2 µM (inactive) in [9]; 1.83 µM (inactive) in assay [17]; 4.56 µM (inactive) in [10]; 0.637 µM (active) in [18]. In addition, the GI50 in assay [11] was 13.5 µM (inactive); in assay [12], 2.07 µM (inactive); in assay [13] it was 1.99 µM (inactive); in [14], 2.74 µM (inactive); in [15], 3.24 µM (inactive).
With `O=NN(CCCl)C(=O)N[C@H]1CC[C@H](C(=O)O)CC1`, the GI50 was > 100 µM (inactive) in assay [1]; > 100 µM (inactive) in [3]; > 100 µM (inactive) in assay [4]; > 100 µM (inactive) in assay [16]; > 31.6 µM (inactive) in assay [5]; 34.8 µM (inactive) in assay [6]. For the same molecule, the GI50 in assay [7] was > 100 µM (inactive); in assay [8], > 100 µM (inactive); in assay [9] it was > 100 µM (inactive); in assay [17], > 100 µM (inactive); in assay [10], 29.7 µM (inactive); in assay [18] it was > 100 µM (inactive). The GI50 was > 100 µM (inactive) in assay [11]; > 61.1 µM (inactive) in [12]; > 100 µM (inactive) in assay [13]; 44.6 µM (inactive) in [14]; 36.1 µM (inactive) in assay [15].
On to `CC(C)(C)[Si](OC1CCOC1=O)(c1ccccc1)c1ccccc1` (configuration not stated), for which the GI50 in assay [1] was 18.9 µM (inactive); in assay [2], 18 µM (inactive); in [19] it was > 10 µM (inactive); in [3], 17.1 µM (inactive); in [16], 13.6 µM (inactive); in [5], 13.4 µM (inactive). The GI50 was 16 µM (inactive) in [6]; > 10 µM (inactive) in assay [7]; 31.3 µM (inactive) in assay [8]; 23 µM (inactive) in [10]; 15.2 µM (inactive) in [11]; 26.5 µM (inactive) in [12]. Further, the GI50 is 15.3 µM (inactive) in assay [13], 18.7 µM (inactive) in [14] and 23.4 µM (inactive) in [15].
With `NC(=S)N/N=C1\CC(c2ccccc2)Nc2ccccc21` (configuration not stated), the GI50 is 42.1 µM (inactive) in assay [2]; 48.1 µM (inactive) in [3]; 19.5 µM (inactive) in [5]; 60.3 µM (inactive) in assay [6]; 28.1 µM (inactive) in assay [7]; 55.7 µM (inactive) in [8]. In addition, the GI50 was 39 µM (inactive) in assay [9]; 40.1 µM (inactive) in assay [10]; 30.7 µM (inactive) in assay [12]; 17.2 µM (inactive) in assay [13]; 32.7 µM (inactive) in [14]; 41.7 µM (inactive) in assay [15].
Consider `COc1ccc(C2CC(c3sc(Nc4ccc(C)cc4)nc3C)=NN2)cc1` (configuration not stated), for which the GI50 in assay [1] was 15.8 µM (inactive); in [3] it was 14.1 µM (inactive); in assay [4] it was 13.3 µM (inactive); in assay [16], 6.46 µM (inactive); in [5] it was 16 µM (inactive); in assay [6], 15 µM (inactive). The GI50 is 13.7 µM (inactive) in assay [7]; 20.5 µM (inactive) in assay [8]; 16.6 µM (inactive) in [9]; 14 µM (inactive) in assay [17]; 15.8 µM (inactive) in assay [10]; 13.2 µM (inactive) in [18]. Besides, the GI50 in assay [11] is 15.6 µM (inactive); in assay [12] it was 18.8 µM (inactive); in assay [13], 11.8 µM (inactive); in assay [14], 14.9 µM (inactive); in assay [15] it was 15.4 µM (inactive).
In the case of `COc1c(Cl)cc(Cl)cc1S(=O)O`, the GI50 in assay [1], in assay [2], in assay [19], in assay [3], in assay [4] and in assay [16] was > 100 µM (inactive) each time. Besides, the GI50 in assay [8], in [10], in [18], in [13], in [14] and in assay [15] was > 100 µM (inactive) each time.
For the molecule `O=P(CCOc1ccccc1OCCP(=O)(c1ccccc1)c1ccc2c(c1)OCCOCCOCCOCCO2)(c1ccccc1)c1ccc2c(c1)OCCOCCOCCOCCO2` (configuration not stated), the GI50 in assay [1], in assay [2], in assay [19], in [3], in [4] and in assay [16] was > 100 µM (inactive) each time. For the same molecule, the GI50 in assay [5], in [6], in assay [7], in assay [8], in assay [9] and in [10] was > 100 µM (inactive) each time. The GI50 in assay [18], in assay [11], in [12], in assay [13], in [14] and in [15] was > 100 µM (inactive) in each case.
On to `CON(C)C(=O)C(Cc1ccccc1)NC(=O)OCc1ccccc1` (configuration not stated), for which the GI50 in assay [1], in [2], in assay [19], in [3], in [4] and in assay [16] was > 100 µM (inactive) throughout. For the same molecule, the GI50 is 97.7 µM (inactive) in assay [5]; > 100 µM (inactive) in assay [6]; > 100 µM (inactive) in assay [7]; > 100 µM (inactive) in [8]; > 100 µM (inactive) in [10]; > 100 µM (inactive) in [18]. Moreover, the GI50 in assay [11], in assay [12], in assay [13], in assay [14] and in assay [15] was > 100 µM (inactive) each time.
In the case of `COc1ccc(C2=NN(c3nsc4ccccc34)C(=O)CC2)cc1`, the GI50 in [1] is > 100 µM (inactive); in assay [2], > 100 µM (inactive); in [19], 49 µM (inactive); in assay [3] it was > 100 µM (inactive); in assay [4] it was > 100 µM (inactive); in [16] it was 54.2 µM (inactive). Besides, the GI50 in [5] was 61.4 µM (inactive); in assay [7], > 100 µM (inactive); in assay [8], 55.2 µM (inactive); in assay [10] it was > 100 µM (inactive); in [18], > 100 µM (inactive); in [11], > 100 µM (inactive). For the same molecule, the GI50 in [12] was > 100 µM (inactive); in assay [13], > 100 µM (inactive); in assay [14], 62.7 µM (inactive); in [15] it was > 100 µM (inactive).
`COC(=O)C(=O)C(C(C)=O)C(=O)C(=O)Nc1ccc(C)cc1C` (configuration not stated): the GI50 in assay [1], in assay [2], in assay [19], in assay [3], in assay [4] and in [16] was > 100 µM (inactive) each time. Moreover, the GI50 in assay [5], in assay [6], in [7], in assay [8], in assay [9] and in assay [10] was > 100 µM (inactive) in each case. The GI50 in [18], in assay [11], in [12], in assay [13], in assay [14] and in assay [15] was > 100 µM (inactive) in each case.
As to `COc1cccc(CC(C)N)c1` (configuration not stated), the GI50 in [1], in assay [2], in assay [19], in [3], in assay [4] and in [16] was > 100 µM (inactive) each time. Moreover, the GI50 in [5], in assay [6], in [7], in assay [8], in assay [9] and in assay [10] was > 100 µM (inactive) throughout. Further, the GI50 in assay [18], in [11], in assay [12], in assay [13], in [14] and in [15] was > 100 µM (inactive) each time.
